Laboratory results published in patent publication US20070225171A1 (priority 2001, published 2007).

Experiments:
[1] = tested on: SAD1 - Cultivar KY 160 genetically engineered to express a synthetic gene for tolerance to phenoxy herbicides; experiment: Yield assay, 2,4-D sprayed on transgenic SAD1 tobacco; assay type: in vivo, Nicotiana tabacum; conditions: for Plant Yield / Percent Leaf Yield / Corrected Leaf Yield / Corrected Plant Yield / Leaf Yield: SAD1 tobacco, isooctyl ester formulation; for Plant Yield / Corrected Leaf Yield / Corrected Plant Yield / Leaf Yield: dry matter 21 days after spraying; for Percent Leaf Yield: 21 days after spraying
Method: (§1) The use of exogenously supplied synthetic auxins on agronomic crops to elicit direct non-herbicidal effects, with an emphasis on the potential enhancement of yield, was assessed using genetically-engineered (GE) tobacco plant lines expressing synthetic auxin metabolizing genes. Non-GE controls were used, permitting separation of the herbicidal and biological properties of the exogenously supplied synthetic auxins. Tobacco was utilized to model dry matter yield.
(§2) The research was conducted in a single phase entailing characterization of response variables when plants were subjected to maximum (1× rate=1 pound/acre of active ingredient) and low (¼×=4 ounces/acre of active ingredient) rates of exogenously applied 2,4-dichlorophenoxyacetic acid (2,4-D). GE lines of tobacco (dark fired cultivar “KY 160”) expressing a synthetic gene for auxin metabolism (SAD1 or SAD2) were used, along with non-GE lines of the same genotype as control material. Commercial tobacco production has long utilized decapitation (“topping”) to initiate a predictable increase in leaf weight, thickness, and dry matter yield. This yield increase is dependent upon variables, such as genotype and fertility. By utilizing controls of the same genotype and a fixed level of fertility, significant yield variation responses should be attributable to the treatment (exogenous auxin herbicide application).
(§3) The overall experimental design was comprised of three parallel completely randomized designs with spray rate and genotype as the main factors. Three replications were performed for each treatment within each experiment. Each replication was the average measurement of six plants. The tobacco lines were allowed to advance to the 6-8 leaf stage. Upon reaching this stage, the primary meristem was removed along with lower leaves so that only 4 leaves remained. Plants were then sprayed with herbicide and permitted to grow for an additional 21 days. At the end of this period, dry matter yields for both leaf and the whole plant were measured.
(§4) Yield data recorded for tobacco were leaf dry matter, leaf number, and total dry matter. Corrected plant yield and corrected leaf yield were calculated for each replication as the leaf dry matter divided by leaf number then multiplied by the expected number of leaves (6 plants×4 leaves=24). This corrected leaf yield was then added to stem yield fraction (arrived at by subtracting actual leaf yield from total plant yield) to create a corrected total plant yield. All tobacco yield measurements were recorded in grams after a 7-day drying period in ambient air dryers.
(§5) Seed of non-transgenic tobacco lines were germinated on MS03 (MS salts, B5 vitamins, 3% sucrose) medium. Transgenic seeds were germinated on the same medium augmented with 300 mg/L kanamycin monosulfate to allow detection of any seedlings failing to carry the transgene. Thirty days after germination, seedlings were transplanted to the greenhouse into flats holding 8 trays of 6 plants each for a total of 48 plants. Plants were permitted to grow for approximately 45 days, at which time 6-8 leaves had developed. Prior to spraying, the top of the plant retaining the uppermost two leaves was removed (decapitated) resulting in the retention of 4 fully-extended leaves for each plant.
(§6) For spray assays and for the yield studies, spraying was performed in an Allen Machine Works Spray Cabinet. Spray rates were established as the equivalent of 16 ounces of active ingredient per acre (1× rate), 4 ounces active ingredient/acre (¼× rate), and the control (no active ingredient per acre or 0×). The herbicide used was 2,4-D, isooctyl ester formulation (3.9 pounds of active ingredient/gallon) at equivalent rates noted above. To achieve this equivalent 1× field rate, 500 microliters of herbicide were diluted into a total volume of 50 ml. The ¼× field rate was achieved by diluting 125 microliters of herbicide in a 50 ml volume. […]

[2] = tested on: SAD2 - Cultivar KY 160 genetically engineered to express a modified version of the SAD1 synthetic gene; experiment: Yield assay, 2,4-D sprayed on transgenic SAD2 tobacco; assay type: in vivo, Nicotiana tabacum; conditions: for Plant Yield / Percent Leaf Yield / Corrected Leaf Yield / Corrected Plant Yield / Leaf Yield: SAD2 tobacco, isooctyl ester formulation; for Plant Yield / Corrected Leaf Yield / Corrected Plant Yield / Leaf Yield: dry matter 21 days after spraying; for Percent Leaf Yield: 21 days after spraying
Method: as §1, §2, §3, §4, §5, §6

[3] = tested on: SAD2 - Cultivar UC82B genetically engineered to express a synthetic gene for tolerance to phenoxy herbicides; experiment: Fruit yield assay, 2,4-D sprayed on transgenic SAD2 tomato; assay type: in vivo, Lycopersicon esculentum; conditions: for Total Yield (Fresh Fruit Yield) / Fruit Weight (Average Fresh Fruit Weight) / Total Flowers / Fruit per Plant / Total Fruit No.: SAD2 tomato; for Total Yield (Fresh Fruit Yield): harvested over 60 days; for Fruit Weight (Average Fresh Fruit Weight) / Total Flowers / Fruit per Plant / Total Fruit No.: 60 days; for Total Flowers: Flower Number/plant/replication/treatment; for Fruit per Plant: Fruit Number/plant/replication/treatment; for Total Fruit No.: Total Fruit Number/replication/treatment
Text: The use of exogenously supplied synthetic auxins on agronomic crops to elicit direct non-herbicidal effects was further assessed using genetically-engineered tomato plant lines expressing a synthetic auxin metabolizing gene, and non-genetically-engineered controls. Tomato was utilized to model fruit retention (fruit set) and fruit yield. The transgenic tomato line was utilized in the T2 generation with the transgene fixed in a homozygous fashion. The tomato genotype UC82L was utilized as the control, as well as the background for tranformation with the pPZP211-PNPT-311-SAD2 binary plasmid. This genotype was chosen because it is more likely to closely approximate the behavior of field-grown tomatoes than some short-life-cycle laboratory strains of tomato.
In the same manner as for tobacco, the research was conducted in a single phase entailing characterization of response variables when plants were subjected to the maximum (1× rate=1 pound/acre of active ingredient) and low (¼×=4 ounces/acre of active ingredient) rates of exogenously applied 2,4-D. The overall experimental design was comprised of three parallel completely randomized designs with spray rate and genotype as the main factors. Three replications were performed for each treatment within each experiment. Each replication was the average of three plants that were harvested over a period of 60 days. Fruit number, fruit weight and flower number were measured directly, with average fruit weight and average fruit per plant being derived by dividing fruit weight and fruit number within a replication by the number of plants (3). Tomato fruit yield was measured on fresh fruit and recorded in grams.
The binary plasmid pPZP211-PNPT-311-SAD2 used for transformation was the same as that used in Example 1, and tomato (Lycopersicon esculentum) cultivar UC82B (a cultivar nearly identical to UC82L) was transformed by Agrobacterium-mediated transformation of leaf tissue with the binary plasmid as described in Example 1. Transgenic plants were produced from the transformed leaf tissue as described in Example 1.
Non-transgenic and transgenic seed were germinated and grown as described in Example 1 for tobacco. The transgenic tomato line was utilized in the T2 generation with the transgene fixed in a homozygous fashion.
The plants with 4 fully-extended leaves retained were sprayed as described in Example 1. Each replication (3 plants) was sprayed independently and permitted to dry before being moved back to the greenhouse for further growth for 60 days.
Fruit number, fruit weight, and flower number were measured directly during this 60-day period. Tomato fruit yield was measured on fresh fruit and recorded in grams.

[4] = 2,4-D rate 1X (1 pound active ingredient/acre)
[5] = 2,4-D rate ¼X (4 ounces active ingredient/acre)

O=C(O)COc1ccc(Cl)cc1Cl [2,4-D, 2,4-dichlorophenoxyacetic acid]
Plant Yield [1, 4]: 42.5 grams/plant/replication/treatment
Percent Leaf Yield ([1]; 2,4-D rate 1X): 44.7%
Corrected Leaf Yield ([1]; 2,4-D rate 1X): 19.1 grams/plant/replication/treatment
Corrected Plant Yield ([1]; 2,4-D rate 1X): 42.7 grams/plant/replication/treatment
Leaf Yield ([1]; 2,4-D rate 1X): 18.8 grams/plant/replication/treatment
Plant Yield [1, 5]: 43.5 grams/plant/replication/treatment
Percent Leaf Yield ([1]; 2,4-D rate ¼X): 40.5%
Corrected Leaf Yield ([1]; 2,4-D rate ¼X): 17.8 grams/plant/replication/treatment
Corrected Plant Yield ([1]; 2,4-D rate ¼X): 43.9 grams/plant/replication/treatment
Leaf Yield ([1]; 2,4-D rate ¼X): 17.4 grams/plant/replication/treatment
effect on yield ([1]; transgenic material (SAD1) sprayed with either the ¼× or 1× rate): significant increase in yield
Plant Yield [2, 4]: 48.8 grams/plant/replication/treatment
Percent Leaf Yield ([2]; 2,4-D rate 1X): 42.2%
Corrected Leaf Yield ([2]; 2,4-D rate 1X): 21.6 grams/plant/replication/treatment
Corrected Plant Yield ([2]; 2,4-D rate 1X): 51.0 grams/plant/replication/treatment
Leaf Yield ([2]; 2,4-D rate 1X): 19.4 grams/plant/replication/treatment
Plant Yield [2, 5]: 43.9 grams/plant/replication/treatment
Percent Leaf Yield ([2]; 2,4-D rate ¼X): 42.2%
Corrected Leaf Yield ([2]; 2,4-D rate ¼X): 19.1 grams/plant/replication/treatment
Corrected Plant Yield ([2]; 2,4-D rate ¼X): 45.2 grams/plant/replication/treatment
Leaf Yield ([2]; 2,4-D rate ¼X): 17.8 grams/plant/replication/treatment
effect on yield ([2]; transgenic material (SAD2) sprayed with either the ¼× or 1× rate): significant increase in yield
Total Yield (Fresh Fruit Yield) ([3]; spray rate 1X (1 pound active ingredient/acre), 2,4-D isooctyl ester formulation): 131.9 grams/plant/replication/treatmen
Fruit Weight (Average Fresh Fruit Weight) ([3]; spray rate 1X): 13.7 grams/fruit/plant/replication/treatment
Total Flowers ([3]; spray rate 1X): 19.7
Fruit per Plant ([3]; spray rate 1X): 2.4
Total Fruit No. ([3]; spray rate 1X): 9.7
Total Yield (Fresh Fruit Yield) ([3]; spray rate ¼X (4 ounces active ingredient/acre), 2,4-D isooctyl ester formulation): 122.9 grams/plant/replication/treatmen
Fruit Weight (Average Fresh Fruit Weight) ([3]; spray rate ¼X): 14.4 grams/fruit/plant/replication/treatment
Total Flowers ([3]; spray rate ¼X): 17.3
Fruit per Plant ([3]; spray rate ¼X): 2.2
Total Fruit No. ([3]; spray rate ¼X): 8.7
effect on average fruit weight ([3]; transgenic line, ¼× rate): increase in average fruit weight
effect on total flower number ([3]; transgenic lines, ¼× rate): increasing the number of flowers
